Here are results for 12 molecules from patent US20240218022A1, “ANTI-VISTA MACROCYCLIC PEPTIDES AND COMPOSITIONS” (BRISTOL-MYERS SQUIBB COMPANY, priority 2022, published 2024).

The structures appear in SMILES notation. Positions of bridges follow the written chain, without caps; N, C: chain ends. Non-standard residues stand in square brackets, D forms with d. Residues, ends and D or L forms follow the SMILES beside them. 2Nal = N[C@@H](Cc1ccc2ccccc2c1)C(=O)O; Ahp(2) = CCCCC[C@H](N)C(=O)O; NHexGly = CCCCCCNCC(=O)O; Nle = CCCC[C@H](N)C(=O)O; Orn = NCCC[C@H](N)C(=O)O

For this experiment, the target named is T1, mouse VISTA (mVISTA) (Mus musculus, UniProt Q9D659).
T1 construct: expressed in transfected cells; host or cells: Human embryonic kidney 293T cells
T1 sequence (Q9D659 33-308): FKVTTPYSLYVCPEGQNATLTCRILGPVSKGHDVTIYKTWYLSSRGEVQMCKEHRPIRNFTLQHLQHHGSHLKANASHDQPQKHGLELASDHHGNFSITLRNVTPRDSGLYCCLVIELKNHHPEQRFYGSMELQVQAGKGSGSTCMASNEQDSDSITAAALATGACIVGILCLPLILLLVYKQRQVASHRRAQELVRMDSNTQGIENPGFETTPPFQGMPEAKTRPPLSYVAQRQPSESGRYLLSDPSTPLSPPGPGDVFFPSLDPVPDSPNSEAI
The experiment is described as follows: Cell-Based Binding High-Content Assay For mVISTA (HC CBA mVISTA). The note with it: cell-based binding high-content assay, mVISTA; the 16th table; read-out: HC CBA mVISTA IC50. As for the experimental part:
Cell-Based Binding High-Content Assay For mVISTA
Human embryonic kidney 293T cells (293T) expressing mouse VISTA (mVISTA) were used for the assessment of compounds competing with the binding of a biotinylated peptide. Cryopreserved cells were thawed in a 37° C. water bath and incubated overnight at a 37° C./5% CO2 incubator in assay culture media DMEM (Life Technologies Inc. Cat. No. 11995-126) supplemented with 10% (v/v) FBS (Sigma, Cat. No. F4135), 1× Penicillin/Streptomycin (Life Technologies Inc. Cat. No. 15140-122). Cells were harvested, washed and resuspended in DMEM media […]. To test compounds under “no-wash” condition, cells were seeded into PDL-coated 384 well plates (Corning, Cat. No. 356663) at 4,000 cells/20 μL. After incubating the cell plates for two hours at a 37° C./5% CO2 incubator, 125 nL of test compound was added using an ECHO. Alternatively, to test compounds under “wash” condition, test compounds were added first, followed by addition of 20 μL cells at a density of 4000 cells/well. After incubation for an hour, the media was removed, followed by addition of 20 μL of fresh media ( ), and plates were then incubated for another hour. To plates either under “no wash” or “wash” condition, the biotinylated peptide was added to a final concentration of 2 nM, and plates were incubated at room temperature for 30 minutes. Fifteen (15) μL of Alexa 647 conjugated Streptavidin (Life Tech, Cat. No. S21374), suspended at 2 μg/ml in media, was added to the assay plate and incubate for 30 minutes. Cells were fixed by adding 15 μL of formaldehyde at a final concentration of 8% (w/v) (Sigma Cat. No. 252549), 20 μg/mL Hoechst (Thermo Scientific Cat. No. 62249) in PBS for 10 minutes at room temperature. The plates were washed 3 times in dPBS, sealed, and read on a CellInsight NXT High Content Screening Platform IC903000 (Thermo Scientific). The 50% effective concentration (IC50) was calculated using the four-parameter logistic formula y=A+((B−A)/(1+((C/x)^D))), where A and B denote minimal and maximal % inhibition, respectively, C is the EC50, D is hill slope and x represent compound concentration.

By IC50 is commonly meant the midpoint of a concentration-inhibition curve. With `CCCCCCN1CC(=O)N[C@@H](Cc2ccc(O)cc2)C(=O)N[C@@H](C(C)C)C(=O)NCC(=O)N[C@@H](CCCNC(=N)N)C(=O)N[C@@H](CC(C)C)C(=O)N[C@@H](CCCCC)C(=O)N2CCC[C@H]2C(=O)N[C@@H](C(C)C)C(=O)N[C@@H](CO)C(=O)N[C@H](C(=O)NCC(=O)O)CSCC(=O)N[C@@H](Cc2ccc3ccccc3c2)C(=O)N[C@@H](Cc2ccc(O)cc2)C(=O)N[C@@H](CC(=O)O)C1=O` [Ex 1277] ({CH2CO}-[2Nal]YD[NHexGly]YVGRL[Ahp(2)]PVSCG-OH; thioether N-14), the IC50 came to 23.2 nM.

As for `CCCCCCN1CC(=O)N[C@@H](Cc2ccc(O)cc2)C(=O)N[C@@H](CC(C)C)C(=O)N[C@@H](CC(=O)O)C(=O)N[C@@H](CCCNC(=N)N)C(=O)N[C@@H](CC(C)C)C(=O)N[C@@H](CCCCC)C(=O)N2CCC[C@H]2C(=O)N[C@@H](C(C)C)C(=O)N[C@@H](CC(=O)O)C(=O)N[C@H](C(=O)NCC(=O)O)CSCC(=O)N[C@@H](Cc2ccc3ccccc3c2)C(=O)N[C@@H](Cc2ccc(O)cc2)C(=O)N[C@@H](CC(=O)O)C1=O` [Ex 1278] ({CH2CO}-[2Nal]YD[NHexGly]YLDRL[Ahp(2)]PVDCG-OH; thioether N-14), the IC50 amounted to 24 nM. The figure for `CCCCCCN1CC(=O)N[C@@H](Cc2ccc(O)cc2)C(=O)N[C@@H](CCCCC)C(=O)N[C@@H](CC(=O)O)C(=O)N[C@@H](CCCNC(=N)N)C(=O)N[C@@H](CC(C)C)C(=O)N[C@@H](CCCCC)C(=O)N2CCC[C@H]2C(=O)N[C@@H](C(C)C)C(=O)N[C@@H](CC(=O)O)C(=O)N[C@H](C(=O)NCC(N)=O)CSCC(=O)N[C@@H](Cc2ccc3ccccc3c2)C(=O)N[C@@H](Cc2ccc(O)cc2)C(=O)N[C@@H](CC(=O)O)C1=O` [Ex 1279] ({CH2CO}-[2Nal]YD[NHexGly]Y[Ahp(2)]DRL[Ahp(2)]PVDCG-NH2; thioether N-14) is 26.6 nM; for `CCCCCCN1CC(=O)N[C@@H](Cc2ccc(O)cc2)C(=O)N[C@@H](C(C)C)C(=O)NCC(=O)N[C@@H](CCCNC(=N)N)C(=O)N[C@@H](CC(C)C)C(=O)N[C@@H](CCCCC)C(=O)N2CCC[C@H]2C(=O)N[C@@H](C(C)C)C(=O)N[C@@H](CC(=O)O)C(=O)N[C@H](C(=O)NCC(=O)O)CSCC(=O)N[C@@H](Cc2ccc3ccccc3c2)C(=O)N[C@@H](Cc2ccc(O)cc2)C(=O)N[C@@H](CC(=O)O)C1=O` [Ex 1280] ({CH2CO}-[2Nal]YD[NHexGly]YVGRL[Ahp(2)]PVDCG-OH; thioether N-14) it is 33.7 nM. As to `CCCCCCN1CC(=O)N[C@@H](Cc2ccc(O)cc2)C(=O)N[C@@H](CC(C)C)C(=O)NCC(=O)N[C@@H](CCCNC(=N)N)C(=O)N[C@@H](CC(C)C)C(=O)N[C@@H](CCCCC)C(=O)N2CCC[C@H]2C(=O)N[C@@H](C(C)C)C(=O)N[C@@H](CC(=O)O)C(=O)N[C@H](C(=O)NCC(N)=O)CSCC(=O)N[C@@H](Cc2ccc3ccccc3c2)C(=O)N[C@@H](Cc2ccc(O)cc2)C(=O)N[C@@H](CC(=O)O)C1=O` [Ex 1281] ({CH2CO}-[2Nal]YD[NHexGly]YLGRL[Ahp(2)]PVDCG-NH2; thioether N-14), the half-maximal inhibitory concentration (IC50) was found to be 22.9 nM.

Turning to `CCCCCCN1CC(=O)N[C@@H](Cc2ccc(O)cc2)C(=O)N[C@@H](CC(C)C)C(=O)NCC(=O)N[C@@H](CCCNC(=N)N)C(=O)N[C@@H](CC(C)C)C(=O)N[C@@H](CCCCC)C(=O)N2CCC[C@H]2C(=O)N[C@@H](C(C)C)C(=O)N[C@@H](CC(=O)O)C(=O)N[C@H](C(=O)NCC(=O)O)CSCC(=O)N[C@@H](Cc2ccc3ccccc3c2)C(=O)N[C@@H](Cc2ccc(O)cc2)C(=O)N[C@@H](CC(=O)O)C1=O` [Ex 1282] ({CH2CO}-[2Nal]YD[NHexGly]YLGRL[Ahp(2)]PVDCG-OH; thioether N-14), the IC50 is 11.7 nM. Next, `CCCCCCN1CC(=O)N[C@@H](Cc2ccc(O)cc2)C(=O)N[C@@H](C(C)C)C(=O)NCC(=O)N[C@@H](CCCNC(=N)N)C(=O)N[C@@H](CC(C)C)C(=O)N[C@@H](CCCCC)C(=O)N2CCC[C@H]2C(=O)N[C@@H](C(C)C)C(=O)N[C@@H](CC(=O)O)C(=O)N[C@H](C(=O)NCC(N)=O)CSCC(=O)N[C@@H](Cc2ccc3ccccc3c2)C(=O)N[C@@H](Cc2ccc(O)cc2)C(=O)N[C@@H](CC(=O)O)C1=O` [Ex 1283] ({CH2CO}-[2Nal]YD[NHexGly]YVGRL[Ahp(2)]PVDCG-NH2; thioether N-14): 18.9 nM; `CCCCCCN1CC(=O)N[C@@H](Cc2ccc(O)cc2)C(=O)N[C@@H](CCCC)C(=O)NCC(=O)N[C@@H](CCCNC(=N)N)C(=O)N[C@@H](CC(C)C)C(=O)N[C@@H](CCCCC)C(=O)N2CCC[C@H]2C(=O)N[C@@H](C(C)C)C(=O)N[C@@H](CC(=O)O)C(=O)N[C@H](C(=O)NCC(N)=O)CSCC(=O)N[C@@H](Cc2ccc3ccccc3c2)C(=O)N[C@@H](Cc2ccc(O)cc2)C(=O)N[C@@H](CC(=O)O)C1=O` [Ex 1284] ({CH2CO}-[2Nal]YD[NHexGly]Y[Nle]GRL[Ahp(2)]PVDCG-NH2; thioether N-14): 3.6 nM; `CCCCCCN1CC(=O)N[C@@H](Cc2ccc(O)cc2)C(=O)N[C@@H](CCCC)C(=O)NCC(=O)N[C@@H](CCCNC(=N)N)C(=O)N[C@@H](CC(C)C)C(=O)N[C@@H](CCCCC)C(=O)N2CCC[C@H]2C(=O)N[C@@H](C(C)C)C(=O)N[C@@H](CC(=O)O)C(=O)N[C@H](C(=O)NCC(=O)O)CSCC(=O)N[C@@H](Cc2ccc3ccccc3c2)C(=O)N[C@@H](Cc2ccc(O)cc2)C(=O)N[C@@H](CC(=O)O)C1=O` [Ex 1285] ({CH2CO}-[2Nal]YD[NHexGly]Y[Nle]GRL[Ahp(2)]PVDCG-OH; thioether N-14): 8.3 nM. The figure for `CCCCCCN1CC(=O)N[C@@H](Cc2ccc(O)cc2)C(=O)N[C@@H](CC(C)C)C(=O)NCC(=O)N[C@@H](CCCNC(=N)N)C(=O)N[C@@H](CC(C)C)C(=O)N[C@@H](CCCCC)C(=O)N2CCC[C@H]2C(=O)N[C@@H](C(C)C)C(=O)N[C@@H](CCC(=O)O)C(=O)N[C@H](C(=O)NCC(N)=O)CSCC(=O)N[C@@H](Cc2ccc3ccccc3c2)C(=O)N[C@@H](Cc2ccc(O)cc2)C(=O)N[C@@H](CC(=O)O)C1=O` [Ex 1286] ({CH2CO}-[2Nal]YD[NHexGly]YLGRL[Ahp(2)]PVECG-NH2; thioether N-14) is 39.2 nM; for `CCCCCCN1CC(=O)N[C@@H](Cc2ccc(O)cc2)C(=O)N[C@@H](CCCC)C(=O)NCC(=O)N[C@@H](CCCNC(=N)N)C(=O)N[C@@H](CC(C)C)C(=O)N[C@@H](CCCCC)C(=O)N2CCC[C@H]2C(=O)N[C@@H](C(C)C)C(=O)N[C@@H](CCC(=O)O)C(=O)N[C@H](C(=O)NCC(N)=O)CSCC(=O)N[C@@H](Cc2ccc3ccccc3c2)C(=O)N[C@@H](Cc2ccc(O)cc2)C(=O)N[C@@H](CC(=O)O)C1=O` [Ex 1287] ({CH2CO}-[2Nal]YD[NHexGly]Y[Nle]GRL[Ahp(2)]PVECG-NH2; thioether N-14) it is 42.7 nM. Next, `CCCCCCN1CC(=O)N[C@@H](Cc2ccc(O)cc2)C(=O)N[C@@H](CCCCN)C(=O)NCC(=O)N[C@@H](CCCN)C(=O)N[C@@H](CC(C)C)C(=O)N[C@@H](CCCCC)C(=O)N2CCC[C@H]2C(=O)N[C@@H](C(C)C)C(=O)N[C@@H](CO)C(=O)N[C@H](C(=O)NCC(=O)O)CSCC(=O)N[C@@H](Cc2ccc3ccccc3c2)C(=O)N[C@@H](Cc2ccc(O)cc2)C(=O)N[C@@H](CC(=O)O)C1=O` [Ex 1288] ({CH2CO}-[2Nal]YD[NHexGly]YKG[Orn]L[Ahp(2)]PVSCG-OH; thioether N-14): 16.7 nM.
